Experimental data from patent US20250145642A1, “BICYCLIC HETEROARENES AND METHODS OF THEIR USE” (Kineta, Inc., priority 2021, published 2025).

molecular target: full-length human PIKFYVE (N-terminal GST-fusion) (Homo sapiens (Human), UniProt Q9Y2I7, L932S/Q1183K/Q995L/S1033A/S696N/T998S); assay: PIKfyve biochemical assay (ADP-Glo Kinase assay, Carna Biosciences); settings: ADP-Glo, full-length human GST-PIKFYVE, 10 μM to 3 nM; read-out: hPIKfyve IC50
Excerpt: (§1) PIKfyve Biochemical Assay. The biochemical PIKfyve inhibition assays were run by Carna Biosciences according to proprietary methodology based on the Promega ADP-Glo™ Kinase assay. A full-length human PIKFYVE [1-2098(end) amino acids and S696N, L932S, Q995L, T998S, S1033A and Q1183K of the protein having the sequence set forth in NCBI Reference Sequence No. NP_055855.2] was expressed as N-terminal GST-fusion protein (265 kDa) using baculovirus expression system. GST-PIKFYVE was purified by using glutathione sepharose chromatography and used in an ADP-Glo™ Kinase assay (Promega). Reactions were set up by adding the test compound solution, substrate solution, ATP solution and kinase solution, each at 4× final concentrations. Reactions were prepared with assay buffer (50 mM MOPS, 1 mM DTT, pH7.2), mixed, and incubated in black 384 well polystyrene plates for 1 hour at room temperature. ADP-Glo™ reagent was then added for 40 minutes, followed by kinase detection reagent for an additional 40 minutes. The kinase activity was evaluated by detecting relative light units on a luminescence plate reader. Samples were run in duplicate from 10 μM to 3 nM. […] IC50 values were calculated from concentration vs % inhibition curves by fitting to a four-parameter logistic curve.
as §1, with “The” for “PIKfyve Biochemical Assay. The”, “accession number” for “the protein having the sequence set forth in NCBI Reference Sequence No.”, “curve. […]” for “curve.”

full-length human PIKFYVE (N-terminal GST-fusion), sequence (Q9Y2I7 whole entry S696N/L932S/Q995L/T998S/S1033A/Q1183K, the tested form may be a part): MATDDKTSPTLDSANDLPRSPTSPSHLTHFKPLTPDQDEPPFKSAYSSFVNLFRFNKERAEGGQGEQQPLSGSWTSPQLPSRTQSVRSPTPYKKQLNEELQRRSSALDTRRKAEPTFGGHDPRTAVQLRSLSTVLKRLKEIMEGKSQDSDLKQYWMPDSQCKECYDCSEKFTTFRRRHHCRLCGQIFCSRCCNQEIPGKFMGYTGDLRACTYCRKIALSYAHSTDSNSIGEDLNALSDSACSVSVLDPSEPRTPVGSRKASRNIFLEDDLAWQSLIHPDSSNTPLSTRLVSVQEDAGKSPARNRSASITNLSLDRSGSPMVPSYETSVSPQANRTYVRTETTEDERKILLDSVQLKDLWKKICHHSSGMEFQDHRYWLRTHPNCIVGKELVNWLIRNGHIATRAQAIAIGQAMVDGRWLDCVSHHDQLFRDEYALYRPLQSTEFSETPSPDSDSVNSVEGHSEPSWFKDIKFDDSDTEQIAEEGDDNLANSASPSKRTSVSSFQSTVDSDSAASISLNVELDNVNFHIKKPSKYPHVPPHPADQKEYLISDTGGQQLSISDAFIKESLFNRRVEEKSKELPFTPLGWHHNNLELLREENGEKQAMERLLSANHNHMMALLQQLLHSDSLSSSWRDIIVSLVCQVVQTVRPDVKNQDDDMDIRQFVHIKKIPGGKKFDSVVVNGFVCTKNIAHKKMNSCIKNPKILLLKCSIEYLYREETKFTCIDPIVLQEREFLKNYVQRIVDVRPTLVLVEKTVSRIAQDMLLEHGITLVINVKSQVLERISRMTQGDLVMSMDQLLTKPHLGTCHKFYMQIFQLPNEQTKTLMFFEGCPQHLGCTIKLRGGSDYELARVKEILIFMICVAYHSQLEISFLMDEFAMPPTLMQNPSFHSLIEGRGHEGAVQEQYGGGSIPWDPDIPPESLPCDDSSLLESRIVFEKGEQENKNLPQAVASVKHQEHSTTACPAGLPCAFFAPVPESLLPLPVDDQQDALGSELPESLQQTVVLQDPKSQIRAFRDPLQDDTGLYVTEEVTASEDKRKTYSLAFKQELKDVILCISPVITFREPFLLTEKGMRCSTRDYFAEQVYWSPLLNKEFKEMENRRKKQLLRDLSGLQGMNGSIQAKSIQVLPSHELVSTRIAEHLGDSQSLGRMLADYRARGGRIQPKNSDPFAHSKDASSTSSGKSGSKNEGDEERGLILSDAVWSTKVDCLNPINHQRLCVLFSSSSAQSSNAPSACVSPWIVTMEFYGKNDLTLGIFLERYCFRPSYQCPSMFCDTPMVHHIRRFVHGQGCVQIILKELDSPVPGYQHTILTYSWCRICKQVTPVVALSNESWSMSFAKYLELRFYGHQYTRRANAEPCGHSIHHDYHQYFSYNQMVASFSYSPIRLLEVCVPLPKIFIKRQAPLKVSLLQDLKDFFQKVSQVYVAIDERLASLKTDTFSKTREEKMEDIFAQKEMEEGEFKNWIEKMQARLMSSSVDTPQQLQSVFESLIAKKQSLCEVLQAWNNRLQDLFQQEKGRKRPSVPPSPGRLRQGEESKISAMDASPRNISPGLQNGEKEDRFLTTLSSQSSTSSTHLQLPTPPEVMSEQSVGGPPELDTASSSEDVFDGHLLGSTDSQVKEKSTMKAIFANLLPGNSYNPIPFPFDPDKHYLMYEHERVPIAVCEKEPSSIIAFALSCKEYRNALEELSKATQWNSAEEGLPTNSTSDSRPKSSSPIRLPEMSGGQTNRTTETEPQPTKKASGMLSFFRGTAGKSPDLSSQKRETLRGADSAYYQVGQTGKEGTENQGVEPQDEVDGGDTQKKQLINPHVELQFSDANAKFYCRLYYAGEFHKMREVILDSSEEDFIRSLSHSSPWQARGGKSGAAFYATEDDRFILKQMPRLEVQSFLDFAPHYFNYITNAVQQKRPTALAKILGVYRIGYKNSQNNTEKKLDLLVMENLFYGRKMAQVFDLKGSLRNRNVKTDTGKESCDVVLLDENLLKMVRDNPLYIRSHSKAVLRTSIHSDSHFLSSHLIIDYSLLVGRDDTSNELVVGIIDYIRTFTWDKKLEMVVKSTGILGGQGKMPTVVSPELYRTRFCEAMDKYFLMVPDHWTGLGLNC

Molecule	IC50
c1ccc(N2CCc3c(-c4cccnc4)nc(N4CCOCC4)nc32)cc1 [Compound 91, 4-(7-phenyl-4-(pyridin-3-yl)-6,7-dihydro-5H-pyrrolo[2,3-d]pyrimidin-2-yl)morpholine]	10 to 100 nM
CC(=O)N1CCC(c2nc(N3CCOCC3)nc3c2CCN3c2ccccc2)C1 (stereo not drawn) [Compound 119, 1-(3-(2-morpholino-7-phenyl-6,7-dihydro-5H-pyrrolo[2,3-d]pyrimidin-4-yl)pyrrolidin-1-yl)ethanone]	10 to 100 nM
CN1CCC(c2nc(N3CCOCC3)nc3c2ncn3-c2ccccc2)C1 (stereo not drawn) [Compound 126, 4-(6-(1-methylpyrrolidin-3-yl)-9-phenyl-9H-purin-2-yl)morpholine]	1000 to 10000 nM
CC(C)(C)OC(=O)N1CC(c2nc(N3CCOCC3)nc3c2CCN3c2ccccc2)C1 [Compound 113, tert-butyl 3-(2-morpholino-7-phenyl-6,7-dihydro-5H-pyrrolo[2,3-d]pyrimidin-4-yl)azetidine-1-carboxylate]	< 10 nM
Cc1cccc(N2C(=O)Cc3c(OCc4cccnc4)nc(N4CCOCC4)nc32)c1 [Compound 129, 2-morpholino-4-(pyridin-3-ylmethoxy)-7-m-tolyl-5H-pyrrolo[2,3-d]pyrimidin-6(7H)-one]	100 to 1000 nM
COc1cccc(-c2nccc(-c3nc(N4CCOCC4)nc4c3CCN4c3cccnc3)n2)c1 [Compound 123, 4-(4-(2-(3-methoxyphenyl)pyrimidin-4-yl)-7-(pyridin-3-yl)-6,7-dihydro-5H-pyrrolo[2,3-d]pyrimidin-2-yl)morpholine]	100 to 1000 nM
CCN1CCCC(COc2nc(N3CCOCC3)nc3c2CCN3c2cccnc2)C1 (stereo not drawn) [Compound 10, 4-(4-((1-ethylpiperidin-3-yl)methoxy)-7-(pyridin-3-yl)-6,7-dihydro-5H-pyrrolo[2,3-d]pyrimidin-2-yl)morpholine]	100 to 1000 nM
4-(4-((oxetan-3-yloxy)methyl)-7-(pyridin-3-yl)-6,7-dihydro-5H-pyrrolo[2,3-d]pyrimidin-2-yl)morpholine [Compound 65]	1000 to 10000 nM
c1cc(-c2nc(N3CCOCC3)nc3c(-c4nccc(C5CC5)n4)c[nH]c23)ccn1 [Compound 138, 4-(7-(4-cyclopropylpyrimidin-2-yl)-4-(pyridin-4-yl)-5H-pyrrolo[3,2-d]pyrimidin-2-yl)morpholine]	100 to 1000 nM
c1ccc(N2CCc3c(-c4cncnc4)nc(N4CCOCC4)nc32)cc1 [Compound 100, 4-(7-phenyl-4-(pyrimidin-5-yl)-6,7-dihydro-5H-pyrrolo[2,3-d]pyrimidin-2-yl)morpholine]	10 to 100 nM
c1ccc(N2CCc3c(OCC4COC4)nc(N4CCOCC4)nc32)cc1 [Compound 20, 4-(4-(oxetan-3-ylmethoxy)-7-phenyl-6,7-dihydro-5H-pyrrolo[2,3-d]pyrimidin-2-yl)morpholine]	10 to 100 nM
c1cncc(N2CCc3c(N4CCN5CCOCC5C4)nc(N4CCOCC4)nc32)c1 (stereo not drawn) [Compound 79, 8-(2-morpholino-7-(pyridin-3-yl)-6,7-dihydro-5H-pyrrolo[2,3-d]pyrimidin-4-yl)octahydropyrazino[2,1-c][1,4]oxazine]	1000 to 10000 nM
CN1CCC(c2nc(N3CCOCC3)nc3c2CCN3c2ccccc2)C1 (stereo not drawn) [Compound 121, 4-(4-(1-methylpyrrolidin-3-yl)-7-phenyl-6,7-dihydro-H-pyrrolo[2,3-d]pyrimidin-2-yl)morpholine]	100 to 1000 nM
CN1CC(c2nc(N3CCOCC3)nc3c2CCN3c2ccccc2)C1 [Compound 117, 4-(4-(1-methylazetidin-3-yl)-7-phenyl-6,7-dihydro-5H-pyrrolo[2,3-d]pyrimidin-2-yl)morpholine]	100 to 1000 nM
N#Cc1nc(N2CCOCC2)nc2c1CCN2c1ccccc1 [Compound 47, 2-morpholino-7-phenyl-6,7-dihydro-5H-pyrrolo[2,3-d]pyrimidine-4-carbonitrile]	100 to 1000 nM
c1ccc(-c2cncc(Oc3nc(N4CCOCC4)nc4c3CCN4c3cccnc3)c2)cc1 [Compound 75, 4-(4-((5-phenylpyridin-3-yl)oxy)-7-(pyridin-3-yl)-6,7-dihydro-5H-pyrrolo[2,3-d]pyrimidin-2-yl)morpholine]	10 to 100 nM

Molecule	IC50
c1ccc(-c2nccc(N3CCc4c(Oc5cccnc5)nc(N5CCOCC5)nc43)n2)cc1 [Compound 74, 4-(7-(2-phenylpyrimidin-4-yl)-4-(pyridin-3-yloxy)-6,7-dihydro-5H-pyrrolo[2,3-d]pyrimidin-2-yl)morpholine]	1000 to 10000 nM
CN1CCCC(COc2nc(N3CCOCC3)nc3c2CCN3c2cncnc2)C1 (stereo not drawn) [Compound 16, 4-(4-((1-methylpiperidin-3-yl)methoxy)-7-(pyrimidin-5-yl)-6,7-dihydro-5H-pyrrolo[2,3-d]pyrimidin-2-yl)morpholine]	1000 to 10000 nM
c1cncc(-c2nc(N3CCOCC3)nc3c2CCN3c2cccnc2)c1 [Compound 106, 4-(4,7-di(pyridin-3-yl)-6,7-dihydro-5H-pyrrolo[2,3-d]pyrimidin-2-yl)morpholine]	10 to 100 nM
c1ccc(-n2ncc(N3CCc4c(Oc5cccnc5)nc(N5CCOCC5)nc43)n2)cc1 [Compound 68, 4-(7-(2-phenyl-2H-1,2,3-triazol-4-yl)-4-(pyridin-3-yloxy)-6,7-dihydro-5H-pyrrolo[2,3-d]pyrimidin-2-yl)morpholine]	1000 to 10000 nM
CN1CCCC(c2nc(N3CCOCC3)nc3c2ncn3-c2cccnc2)C1 (stereo not drawn) [Compound 127, 4-(6-(1-methylpiperidin-3-yl)-9-(pyridin-3-yl)-9H-purin-2-yl)morpholine]	> 10000 nM
c1cncc(N2CCc3c(COC4CCNC4)nc(N4CCOCC4)nc32)c1 (stereo not drawn) [Compound 64, 4-(7-(pyridin-3-yl)-4-((pyrrolidin-3-yloxy)methyl)-6,7-dihydro-5H-pyrrolo[2,3-d]pyrimidin-2-yl)morpholine]	1000 to 10000 nM
c1cc(N2CCc3c(-c4ccoc4)nc(N4CCOCC4)nc32)cnn1 [Compound 96, 4-(4-(furan-3-yl)-7-(pyridazin-4-yl)-6,7-dihydro-5H-pyrrolo[2,3-d]pyrimidin-2-yl)morpholine]	10 to 100 nM
c1ccc(N2CCc3c(C4CCOC4)nc(N4CCOCC4)nc32)cc1 (stereo not drawn) [Compound 87, 4-(7-phenyl-4-(tetrahydrofuran-3-yl)-6,7-dihydro-5H-pyrrolo[2,3-d]pyrimidin-2-yl)morpholine]	10 to 100 nM
c1ccc(N2CCc3cnc(N4CCOCC4)nc32)cc1 [Compound 2, 4-(7-phenyl-6,7-dihydro-5H-pyrrolo[2,3-d]pyrimidin-2-yl)morpholine]	100 to 1000 nM
CN1CCN(c2nc(N3CCOCC3)nc3c2CCN3c2cccnc2)CC1 [Compound 81, 4-(4-(4-methylpiperazin-1-yl)-7-(pyridin-3-yl)-6,7-dihydro-5H-pyrrolo[2,3-d]pyrimidin-2-yl)morpholine]	1000 to 10000 nM
CN1CCC(OCc2nc(N3CCOCC3)nc3c2CCN3c2cccnc2)C1 (stereo not drawn) [Compound 66, 4-(4-((1-methylpyrrolidin-3-yloxy)methyl)-7-(pyridin-3-yl)-6,7-dihydro-5H-pyrrolo[2,3-d]pyrimidin-2-yl)morpholine]	1000 to 10000 nM
c1ccc(N2CCc3c(-c4cnco4)nc(N4CCOCC4)nc32)cc1 [Compound 101, 4-(4-(oxazol-5-yl)-7-phenyl-6,7-dihydro-5H-pyrrolo[2,3-d]pyrimidin-2-yl)morpholine]	10 to 100 nM
CN1CCCC(COc2nc(N3CCOCC3)nc3c2CCN3c2ccnnc2)C1 (stereo not drawn) [Compound 17, 4-(4-((1-methylpiperidin-3-yl)methoxy)-7-(pyridazin-4-yl)-6,7-dihydro-5H-pyrrolo[2,3-d]pyrimidin-2-yl)morpholine]	100 to 1000 nM
Oc1ccc[n+](Cc2nc(N3CCOCC3)nc3c2CCN3c2ccccc2)c1 [Compound 60, 5-hydroxy-1-((2-morpholino-7-phenyl-6,7-dihydro-5H-pyrrolo[2,3-d]pyrimidin-4-yl)methyl)pyridin-1-ium-3-ylium]	100 to 1000 nM
O=c1ccccn1-c1nc(N2CCOCC2)nc2c1CCN2c1ccccc1 [Compound 50, 1-(2-morpholino-7-phenyl-6,7-dihydro-5H-pyrrolo[2,3-d]pyrimidin-4-yl)pyridin-2(1H)-one]	100 to 1000 nM
O=C(Cc1ccccc1)N1CCc2c(-c3ccncc3)nc(N3CCOCC3)nc21 [Compound 73, 1-(2-morpholino-4-(pyridin-4-yl)-5,6-dihydro-7H-pyrrolo[2,3-d]pyrimidin-7-yl)-2-phenylethan-1-one]	10 to 100 nM

same assay, conditions: values plotted in FIG. 7; read-out: PIKFYVE Biochemistry (IC50)

Molecule	IC50
c1ccc(-c2nc(-c3cc(N4CCOCC4)nc(OCc4ccncc4)n3)no2)cc1	> 10000 nM
